According to patent US10231472B2, “Zilpaterol animal premix formulation” (Intervet Inc., priority 2015, dated 2019):
Where a name gives a salt, the structure may show the parent alone.

Columns and labels:
[1] = Solubility of zilpaterol HCl in solvents; assay type: physicochemical
Description: For some drugs that have a good solubility profile formulations can be prepared by dissolving the drug into a solvent and then mixing the resulting solution with additional excipient/carriers to prepare a suitable dosage form (premix, tablets, etc.). This approach works best when the drug concentration is very low and the drug has good solubility. If an excess amount of liquid is added during manufacture a wet mass can be formed that is difficult to process and needs to be dried to remove excess solvent. Drying adds additional cost and complexity to the manufacturing process.
(§1) However since solubility of the drug was poor in propylene glycol, a significant additional amount of propylene glycol was needed (27.6%) to fully solubilize the drug. Since propylene glycol is viscous/sticky, this larger amount of propylene glycol could not be added to the corn cob carrier without causing the product to be sticky which results in poor flow properties. To address this problem, a premix containing only 6% propylene glycol and 2% water was prepared by heating the liquid mixture of zilpaterol HCl to a high temperature and creating a supersaturation of zilpaterol HCl in the propylene glycol/water vehicle. This was successful in fully solubilizing the zilpaterol HCl without needing to add additional liquids. […] When this hot supersaturated solution is added to a dry carrier, it is easily absorbed and mixed and the combination becomes dry and free flowing. Excellent uniformity is obtained, and product safety is improved since free solid drug particles are avoided.

[2] = Stability of zilpaterol in liquid vehicles at high temperature; assay type: physicochemical
Description: as §1
Propylene glycol is the preferred solvent.

CC(C)NC1CCn2c(=O)[nH]c3cccc(c32)C1O (centres unmarked) [Zilpaterol HCl, 4,5,6,7-tetrahydro-7-hydroxy-6-(isopropylamino) imidazo[4,5,1-jk]-[1]benzazepin-2(1H)-one]
solubility of the drug in premix liquid ([1]; premix with 0.8% zilpaterol HCl, 6% propylene glycol and 2% water, without heating): not fully soluble
solubility in propylene glycol ([1]; propylene glycol): 2.9%
solubility ([1]; water): 130 mg/mL
stability in propylene glycol alone ([2]; after 45 days at 60° C., propylene glycol alone): 95.2%
stability in solution, temperature ([2]; supersaturated solution in propylene glycol/water vehicle): ≤ 90 °C
